According to patent US4033992A, “Novel compounds of the 11-deoxyprostaglandin E3, R3α, and F3β series” (priority 1975, dated 1977):

Key:
gastric acid secretion = assay: Gastric acid secretion inhibitory action, modified "Shay rat" procedure; type: in vivo, rats (male, CFE strain); conditions: 3 hours
Protocol: The novel compounds of the present invention (and those wherein R2 is hydroxy when X is keto and Y is ethylene) are effective inhibitors of gastric acid secretion and of ulcer development in experimental animals, and thus are potentially valuable as agents for the control of gastric acid secretion and of gastric erosion and as anti-ulcer agents. Gastric acid secretion inhibitory action was measured by the "Shay rat" procedure with some modifications as follows.
The rats (male, CFE strain) were starved for 48 hours (water was given ad libitum) to permit evacuation of stomach contents. On the morning of the experiment, under ether anesthesia, the abdominal region was shaved and a midline incision (1-1 1/2") was made with a scapel. With the help of a closed curved hemostate the duodenum was picked up. Upon getting the duodenum into view, fingers were used to pull the stomach through the opening, the stomach was then gently manipulated with fingers to rid the stomach of air and residual matter which were pushed through the pylorus. Two-5 inch sutures were drawn under the pyloric-duodenal juncture. A ligature, at the juncture, was formed with one of the threads. The second ligature was also formed but not tightened.
The test compound or the vehicle, usually 1 ml./100 g. body weight, were injected into the duodenum as close as possible to the first ligature. […]
The abdominal cavity was exposed by cutting with scissors and the esophagus close to the stomach was clamped off with a hemostat, the stomach was removed by cutting above the hemostat (the esophagus was cut) and between the two sutures. […] The supernatant was collected, volume measured and recorded, 2 drops of a phenolphthalein indicator (1% in 95% ethanol) were added and the solution was titrated with 0.02 N NaOH (or with 0.04 N NaOH when large volumes of stomach contents were encountered) to pH 8.4 (because of usual coloring of the stomach contents, phenolphthalein was only used to permit visual indication that the end point was near) and the amount of acid present was calculated. […]

ulcers = assay: Indomethacin-induced ulcer assay (anti-ulcer); type: in vivo, Rats; conditions: Indomethacin 20 mg./kg. s.c., score 0-4
Protocol: Another assay useful for determining potential anti-ulcer agents is carried out in the following manner.
Rats were starved for 48 hours (water was given as libitum). Indomethacin (20 mg./kg. of body weight) was administered by the subcutaneous route and one-half the dose of the test compound was administered by gavage at the same time. After three hours, the second half of the test compound was administered also by gavage. Five hours after the administration of Indomethacin the animals were decapitated and the stomachs removed. The stomachs were washed with distilled water, blotted on gauze, cut along the larger curvature, and the contents rinsed with distilled water. The stomachs were spread out, pinned on a cork and visualized under magnifying glass for ulcers. The critera for scoring of ulcers was as previously reported. [Abdel-Galil et al. Brit. J. Pharmac. Chemotherapy 33:1-14 (1968)].
1-- Petechial hemmorrhage or pin point ulcers
3-- Many ulcers, a few large
4-- Many ulcers, mainly large
Control animals treated with Indomethacin but not test compound consistently give scores of about 2.5-3.5. Control animals treated with neither Indomethacin nor test compound give scores of about 0.5-0.8. Compounds diminishing the control ulcer score by 0.5 unit or more are considered to be active

[1] = system: bronchospasms elicited by intravenous injections of 5-hydroxytryptamine, histamine, or acetylchlorine; assay: Bronchodilator activity by the Konzett procedure; type: in vivo, guinea pigs; conditions: Cavia porcellus, three logarithmic cumulative intravenous doses
Protocol: Bronchodilator activity was determined in guinea pigs against bronchospasms elicited by intravenous injections of 5-hydroxytryptamine, histamine, or acetylchlorine by the Konzett procedure. [See J. Lulling, P. Lievens, F. El Sayed and J. Prignot, Arzneimittel-Forschung, 18,995 (1968).] This activity is expressed as an ED50 determined from the results obtained with three logarithmic cumulative intravenous doses.

[2] = intraduodenal dose 50 mg./kg. of body weight

SMILES | Percent Inhibition (gastric acid secretion) (gastric acid secretion; intraduodenal dose 12.5 mg./kg. of body weight) | Percent Inhibition (gastric acid secretion) (gastric acid secretion; [2]) | Score, Treated Animals (ulcer score) (ulcers; total oral dose 12.5 mg./kg. of body weight, Controls 2.7) | ED50 ([1]; spasmogenic agent 5-hydroxytryptamine) | ED50 ([1]; spasmogenic agent acetylcholine) | ED50 ([1]; spasmogenic agent histamine) | Score, Treated Animals (ulcer score) (ulcers; total oral dose 50 mg./kg. of body weight, Controls 2.8)
CCCCC[C@H](O)/C=C/[C@H]1CCC(=O)[C@@H]1C/C=C\CCCC(=O)O [l-11-deoxyprostaglandin E2, 11-deoxyprostaglandin E2] | 42% | 97% | 1.2 | 5.2 µg/kg | 10 µg/kg | 5.2 µg/kg | –
CCCCC[C@H](O)/C=C/[C@H]1CC[C@H](O)[C@@H]1C/C=C\CCCC(=O)O [l-11-deoxyprostaglandin F2 α, 11-deoxyprostaglandin F2 α] | – | 98% | – | – | – | – | 1.3
